These results are taken from ChEMBL document CHEMBL1268989, “Design, syntheses, and SAR of 2,8-diazaspiro[4.5]decanones as T-type calcium channel antagonists” (Bioorg Med Chem Lett, 2010).

For test [1], the target named is Voltage-dependent T-type calcium channel subunit alpha-1H (Homo sapiens) (UniProt O95180). Description: Antagonist activity against T-type calcium channel subunit alpha-1H assessed as inactivation of channel current at 0.3 uM by cell based patch clamp assay. It is filed as functional.
Voltage-dependent T-type calcium channel subunit alpha-1H (Homo sapiens), sequence (O95180 whole entry): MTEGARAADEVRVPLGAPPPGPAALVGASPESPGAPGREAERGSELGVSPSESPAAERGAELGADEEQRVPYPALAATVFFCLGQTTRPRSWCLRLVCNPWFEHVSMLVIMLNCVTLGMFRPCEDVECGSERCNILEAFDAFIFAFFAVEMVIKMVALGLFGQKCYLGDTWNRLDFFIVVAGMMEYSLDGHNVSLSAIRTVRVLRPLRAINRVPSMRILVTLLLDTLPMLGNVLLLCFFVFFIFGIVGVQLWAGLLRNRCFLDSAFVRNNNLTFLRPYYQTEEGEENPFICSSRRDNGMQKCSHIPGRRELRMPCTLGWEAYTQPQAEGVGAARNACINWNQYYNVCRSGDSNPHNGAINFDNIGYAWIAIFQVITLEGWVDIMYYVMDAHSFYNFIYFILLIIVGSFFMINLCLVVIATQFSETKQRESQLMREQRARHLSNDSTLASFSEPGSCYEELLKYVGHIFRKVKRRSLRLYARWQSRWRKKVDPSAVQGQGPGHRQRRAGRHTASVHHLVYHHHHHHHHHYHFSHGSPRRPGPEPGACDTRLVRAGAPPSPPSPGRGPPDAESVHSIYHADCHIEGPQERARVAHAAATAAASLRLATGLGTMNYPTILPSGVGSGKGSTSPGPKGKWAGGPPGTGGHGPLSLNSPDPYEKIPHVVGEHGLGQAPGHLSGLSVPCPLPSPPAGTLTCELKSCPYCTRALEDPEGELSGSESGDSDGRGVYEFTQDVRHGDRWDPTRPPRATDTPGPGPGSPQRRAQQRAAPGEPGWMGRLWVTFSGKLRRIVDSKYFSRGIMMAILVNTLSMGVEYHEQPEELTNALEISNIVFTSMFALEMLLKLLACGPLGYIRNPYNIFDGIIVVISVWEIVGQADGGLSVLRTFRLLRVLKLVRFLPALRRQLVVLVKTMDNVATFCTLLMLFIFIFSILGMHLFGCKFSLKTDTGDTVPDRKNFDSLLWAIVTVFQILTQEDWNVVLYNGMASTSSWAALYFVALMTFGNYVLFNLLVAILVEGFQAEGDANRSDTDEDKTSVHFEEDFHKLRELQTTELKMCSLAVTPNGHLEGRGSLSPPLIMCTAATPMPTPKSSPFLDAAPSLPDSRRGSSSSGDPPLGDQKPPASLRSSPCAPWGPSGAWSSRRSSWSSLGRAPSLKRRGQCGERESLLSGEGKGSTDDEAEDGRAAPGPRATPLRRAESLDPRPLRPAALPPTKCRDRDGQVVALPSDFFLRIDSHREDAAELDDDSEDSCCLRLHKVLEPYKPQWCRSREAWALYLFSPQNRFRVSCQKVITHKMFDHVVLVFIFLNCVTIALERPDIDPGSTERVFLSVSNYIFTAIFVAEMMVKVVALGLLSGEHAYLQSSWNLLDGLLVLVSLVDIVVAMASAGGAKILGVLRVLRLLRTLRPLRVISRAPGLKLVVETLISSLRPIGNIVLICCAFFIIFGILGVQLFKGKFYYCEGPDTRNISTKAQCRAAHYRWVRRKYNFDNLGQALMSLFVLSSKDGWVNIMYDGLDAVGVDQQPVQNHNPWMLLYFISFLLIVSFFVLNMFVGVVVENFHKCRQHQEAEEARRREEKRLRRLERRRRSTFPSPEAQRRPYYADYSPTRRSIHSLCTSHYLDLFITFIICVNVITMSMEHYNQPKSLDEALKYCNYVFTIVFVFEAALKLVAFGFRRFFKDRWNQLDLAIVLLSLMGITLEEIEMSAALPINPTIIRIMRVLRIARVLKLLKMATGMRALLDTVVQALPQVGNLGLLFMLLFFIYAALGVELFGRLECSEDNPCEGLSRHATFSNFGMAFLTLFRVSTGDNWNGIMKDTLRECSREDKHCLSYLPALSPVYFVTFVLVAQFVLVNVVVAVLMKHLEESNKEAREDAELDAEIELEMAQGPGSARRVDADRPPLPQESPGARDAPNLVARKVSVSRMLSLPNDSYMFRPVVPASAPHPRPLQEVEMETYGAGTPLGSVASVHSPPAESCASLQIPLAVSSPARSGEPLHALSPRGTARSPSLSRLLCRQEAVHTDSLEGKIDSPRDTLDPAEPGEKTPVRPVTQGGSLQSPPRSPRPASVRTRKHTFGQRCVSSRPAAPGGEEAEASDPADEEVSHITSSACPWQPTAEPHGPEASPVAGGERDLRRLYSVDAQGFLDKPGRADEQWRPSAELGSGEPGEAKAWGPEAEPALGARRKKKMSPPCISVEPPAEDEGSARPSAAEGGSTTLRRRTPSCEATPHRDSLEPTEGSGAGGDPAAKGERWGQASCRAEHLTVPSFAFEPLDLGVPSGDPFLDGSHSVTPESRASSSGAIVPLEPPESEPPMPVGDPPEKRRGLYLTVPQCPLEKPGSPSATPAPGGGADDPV
Test [2] has the same target. Description: Antagonist activity against T-type calcium channel subunit alpha-1H assessed as inactivation of channel current at 3 uM by cell based patch clamp assay. It is filed as functional.
The target in test [3] is Voltage-dependent L-type calcium channel subunit alpha-1C (Homo sapiens) (UniProt Q13936). Kind of test: Antagonist activity against L-type calcium channel subunit alpha-1C assessed as inactivation of channel current at 3 uM by cell based patch clamp assay.
Voltage-dependent L-type calcium channel subunit alpha-1C (Homo sapiens), sequence (Q13936 whole entry, looked up): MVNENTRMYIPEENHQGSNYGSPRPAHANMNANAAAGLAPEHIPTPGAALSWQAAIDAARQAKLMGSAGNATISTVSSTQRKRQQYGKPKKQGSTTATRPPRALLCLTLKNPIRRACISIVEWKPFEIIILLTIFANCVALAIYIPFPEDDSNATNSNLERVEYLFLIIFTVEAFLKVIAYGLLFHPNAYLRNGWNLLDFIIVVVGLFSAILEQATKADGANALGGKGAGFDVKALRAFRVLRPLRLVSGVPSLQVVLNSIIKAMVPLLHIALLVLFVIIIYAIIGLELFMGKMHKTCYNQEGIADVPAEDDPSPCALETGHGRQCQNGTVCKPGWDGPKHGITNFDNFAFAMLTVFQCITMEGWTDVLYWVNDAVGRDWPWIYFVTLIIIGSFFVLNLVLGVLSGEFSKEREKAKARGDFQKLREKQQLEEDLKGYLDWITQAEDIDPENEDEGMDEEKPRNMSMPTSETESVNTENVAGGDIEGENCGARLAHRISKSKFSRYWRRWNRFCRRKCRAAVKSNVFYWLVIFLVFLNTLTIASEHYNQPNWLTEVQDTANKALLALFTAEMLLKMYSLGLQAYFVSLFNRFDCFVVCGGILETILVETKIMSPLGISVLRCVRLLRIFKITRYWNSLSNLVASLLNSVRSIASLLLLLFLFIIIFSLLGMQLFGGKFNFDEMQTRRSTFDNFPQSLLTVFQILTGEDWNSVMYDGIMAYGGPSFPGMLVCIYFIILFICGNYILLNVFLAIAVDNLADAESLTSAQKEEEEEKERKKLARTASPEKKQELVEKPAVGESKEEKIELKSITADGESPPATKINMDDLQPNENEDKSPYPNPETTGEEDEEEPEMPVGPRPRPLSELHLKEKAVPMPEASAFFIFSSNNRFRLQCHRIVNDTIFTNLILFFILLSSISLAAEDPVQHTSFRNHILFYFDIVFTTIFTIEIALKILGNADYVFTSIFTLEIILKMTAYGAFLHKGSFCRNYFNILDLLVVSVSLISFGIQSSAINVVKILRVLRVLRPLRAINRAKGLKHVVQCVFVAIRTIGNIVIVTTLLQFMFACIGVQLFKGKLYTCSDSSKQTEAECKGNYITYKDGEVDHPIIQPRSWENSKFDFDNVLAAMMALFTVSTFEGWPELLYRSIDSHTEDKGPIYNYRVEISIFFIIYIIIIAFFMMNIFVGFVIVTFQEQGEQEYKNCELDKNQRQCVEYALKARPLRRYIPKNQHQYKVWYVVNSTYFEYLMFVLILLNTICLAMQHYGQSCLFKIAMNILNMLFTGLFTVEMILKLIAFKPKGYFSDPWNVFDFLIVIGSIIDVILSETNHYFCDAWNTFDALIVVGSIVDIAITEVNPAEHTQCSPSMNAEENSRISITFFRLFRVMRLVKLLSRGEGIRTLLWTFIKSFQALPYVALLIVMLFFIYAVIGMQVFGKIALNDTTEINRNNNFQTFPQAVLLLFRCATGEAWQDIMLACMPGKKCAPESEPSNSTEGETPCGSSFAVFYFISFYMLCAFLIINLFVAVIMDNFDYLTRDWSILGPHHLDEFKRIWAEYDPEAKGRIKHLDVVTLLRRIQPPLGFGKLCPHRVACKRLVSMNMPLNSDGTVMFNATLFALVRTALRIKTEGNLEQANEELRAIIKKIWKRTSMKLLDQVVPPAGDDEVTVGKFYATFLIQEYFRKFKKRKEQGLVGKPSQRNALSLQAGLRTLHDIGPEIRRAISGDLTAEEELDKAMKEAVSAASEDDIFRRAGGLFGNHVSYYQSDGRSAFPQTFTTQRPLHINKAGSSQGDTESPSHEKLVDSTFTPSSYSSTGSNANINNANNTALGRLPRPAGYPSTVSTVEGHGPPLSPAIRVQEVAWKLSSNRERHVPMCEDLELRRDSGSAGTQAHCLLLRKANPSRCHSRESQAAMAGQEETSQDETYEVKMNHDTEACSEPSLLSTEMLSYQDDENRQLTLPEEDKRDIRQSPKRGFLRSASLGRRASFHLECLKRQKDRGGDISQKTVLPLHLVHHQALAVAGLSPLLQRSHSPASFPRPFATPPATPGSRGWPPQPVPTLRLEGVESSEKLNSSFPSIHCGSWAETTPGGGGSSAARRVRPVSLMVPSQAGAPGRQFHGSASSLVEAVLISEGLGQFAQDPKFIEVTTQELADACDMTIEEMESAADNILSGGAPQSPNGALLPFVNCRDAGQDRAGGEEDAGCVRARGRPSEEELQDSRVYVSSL
For test [4], the target named is Voltage-dependent T-type calcium channel subunit alpha-1H (Homo sapiens) (UniProt O95180). Kind of test: Antagonist activity against T-type calcium channel subunit alpha-1H assessed as inactivation of channel current at 1 uM by cell based patch clamp assay. It is filed as functional.
Test [5] has the same target. Description: Antagonist activity against T-type calcium channel subunit alpha-1H assessed as inactivation of channel current at 0.03 uM by cell based patch clamp assay. It is filed as functional.
For test [6], the target named is Voltage-dependent L-type calcium channel subunit alpha-1C (Homo sapiens) (UniProt Q13936). Kind of test: Antagonist activity against L-type calcium channel subunit alpha-1C assessed as inactivation of channel current at 0.3 uM by cell based patch clamp assay.
Test [7] addresses Voltage-dependent T-type calcium channel subunit alpha-1H (Homo sapiens) (UniProt O95180). Kind of test: Antagonist activity against T-type calcium channel subunit alpha-1H assessed as inactivation of channel current at 0.1 uM by cell based patch clamp assay. Format: functional.
A short description of test [8]: Selectivity for T-type calcium channel subunit alpha-1H over L-type calcium channel subunit alpha-1C.
Test [9] has as its target Voltage-dependent L-type calcium channel subunit alpha-1C (Homo sapiens) (UniProt Q13936). Description: Antagonist activity against L-type calcium channel subunit alpha-1C assessed as inactivation of channel current at 0.1 uM by cell based patch clamp assay.
The target is the same in test [10]. Kind of test: Antagonist activity against L-type calcium channel subunit alpha-1C assessed as inactivation of channel current at 10 uM by cell based patch clamp assay.

Structures are written as SMILES. Activity calls are given as the source filed them. No cut-off for these calls is given here. A value given as a limit tells only on which side of the number the result lay.

`CC(C)C(C(C)C)N1CCC2(CCN(Cc3ccc(Cl)cc3)C2=O)CC1`: the inhibition in test [1] was 40%.
For `O=C1N(Cc2ccc(Cl)cc2)CCC12CCN(Cc1ccc(F)cc1)CC2`, the figures for the inhibition in [2] and in test [3] were 65% and 59%, respectively.
`O=C1N(Cc2ccc(Cl)cc2)CCC12CCNCC2`: in test [2], the inhibition was below 20%.
Turning to `CCOc1ccccc1CN1CCC2(CC1)CCN(Cc1ccc(Cl)cc1)C2=O`, the inhibition in [2] stood at 67%.
Take `COCCN1CCC2(CCN(C(c3ccc(F)cc3)c3ccc(F)cc3)CC2)C1=O`: in test [4], the inhibition was found to be 28%.
As for `O=C1N(Cc2ccc(Cl)cc2)CCC12CCN(Cc1cccc(Oc3ccccc3)c1)CC2`, the inhibition in [1] came to 56%.
In the case of `O=C1N(CCc2ccc(Cl)cc2)CCC12CCN(C(c1ccc(F)cc1)c1ccc(F)cc1)CC2`, in test [5], the inhibition worked out at 30%.
Consider `O=C1NCCC12CCN(C(c1ccc(F)cc1)c1ccc(F)cc1)CC2`, for which the inhibition in test [2] was below 20%. In addition, the inhibition entry in [4] was “inactive”.
As to `CC(C)(C)CCN1CCC2(CCN(C(c3ccc(F)cc3)c3ccc(F)cc3)CC2)C1=O`, the inhibition is 44% in [1] and 60% in test [6].
Consider `O=C1N(Cc2ccc(Cl)cc2)CCC12CCN(CC(c1ccc(F)cc1)c1ccc(F)cc1)CC2`, for which the inhibition in test [7] worked out at 59%.
As for `O=C1N(Cc2ccc(Cl)cc2)CCC12CCN(C(c1ccc(F)cc1)c1ccc(F)cc1)CC2`, the Ratio IC50 in [8] was 10. Moreover, the figures for the inhibition in test [5] and in [9] were 58% and 31%, respectively.
Regarding `O=C(c1ccc(Cl)cc1)N1CCC2(CCN(C(c3ccc(F)cc3)c3ccc(F)cc3)CC2)C1`, the inhibition is 59% in test [1] and 44% in test [9].
Regarding `COc1cccc(CN2CCC3(CCN(C(c4ccc(F)cc4)c4ccc(F)cc4)CC3)C2=O)c1`, in [8], the Ratio IC50 was determined as 8. Also, the inhibition was found to be 52% in test [5] and 67% in test [6].
Regarding `COCCCN1CCC2(CCN(C(c3ccc(F)cc3)c3ccc(F)cc3)CC2)C1=O`, the inhibition in test [4] is 44%; in test [10], 58%.
As for `O=C1N(Cc2ccc(Cl)cc2)CCC12CCN(S(=O)(=O)c1ccc(F)cc1)CC2`, the inhibition was found to be 45% in test [2] and 54% in test [3].
With `CC(C)OCCCN1CCC2(CCN(C(c3ccc(F)cc3)c3ccc(F)cc3)CC2)C1=O`, the inhibition in [4] was 76%; in test [3], 56%.
Turning to `Fc1ccc(C(c2ccc(F)cc2)N2CCC3(CCN(Cc4ccc(Cl)cc4)C3)CC2)cc1`, the inhibition in [4] was 66%.
Consider `CC(C)N1CCC2(CCN(C(c3ccc(F)cc3)c3ccc(F)cc3)CC2)C1=O`, for which the inhibition was determined as 57% in [2] and 52% in [3].
`O=C1CC2(CCN(C(c3ccc(F)cc3)c3ccc(F)cc3)CC2)CN1Cc1ccc(Cl)cc1`: the inhibition came out at 68% in test [4] and 42% in test [9].
Consider `O=C(c1ccc(F)cc1)N1CCC2(CC1)CCN(Cc1ccc(Cl)cc1)C2=O`, for which the inhibition in [4] was below 20%.
Regarding `O=C1N(Cc2cccc(Cl)c2)CCC12CCN(C(c1ccc(F)cc1)c1ccc(F)cc1)CC2`, the inhibition was below 20% in test [5] and 91% in test [1].
`O=C1N(CCCN2CCOCC2)CCC12CCN(C(c1ccc(F)cc1)c1ccc(F)cc1)CC2`: in test [4], the inhibition amounted to 35%.
